According to US20240246959A1, “BENZIMIDAZOLE DERIVATIVE AND PREPARATION METHOD THEREFOR AND MEDICAL USE THEREOF” (Shenzhen Salubris Pharmaceuticals Co., Ltd., priority 2020, published 2024):

Key:
[1] = Pharmacokinetic study on rat; assay type: in vivo, SD rats; details: for F: 5 mg/kg p.o vs 1 mg/kg i.v; for AUC(0-t) / Cmax / clearance / half-life: male, Sprague-Dawley (SD), plasma
Description: • SD rats: male, 180-250 g, purchased from Beijing Vital River Laboratory Animal Technology Co., Ltd. • Reagents: DMSO (dimethyl sulfoxide), PEG-400 (polyethylene glycol 400), physiological saline, heparin, acetonitrile, formic acid, and propranolol (internal standard), all of which are commercially available. • Instruments: Thermo Fisher Scientific LC-MS (U300 UPLC, TSQ QUANTUMN ULTRA triple quadrupole mass spectrometer).
A compound was weighed and dissolved in a DMSO-PEG-400-physiological saline (5:60:35, v/v/v) system. After the rats were administered with the compound intravenously or by gavage, 200 μL of venous blood samples were collected at 15 min, 30 min, 1 h, 2 h, 5 h, 7 h, and 24 h (for i.v. group an additional collection was performed at 5 min) in heparinized EP tubes respectively, which were centrifuged at 12,000 rpm for 2 min, and the plasma was frozen at −80° C. for further testing. A certain amount of the test substance was precisely weighed and dissolved in DMSO to obtain a stock solution with a concentration of 2 mg/mL. An appropriate amount of the stock solution of the compound was accurately pipetted and diluted with acetonitrile to prepare a standard series solution. 20 μL of each of the above standard series solution was accurately pipetted, added with 180 μL of blank plasma, and vortexed mixed to prepare plasma samples corresponding to plasma concentrations of 0.3, 1, 3, 10, 30, 100, 300, 1000, 3000 ng/mL. Two-sample analysis was performed for each concentration to establish a standard curve. 30 μL of plasma (for samples that are obtained at 5 min, 15 min, 30 min, and 1 h after intravenous administration, the plasma were diluted 10 times) was taken, added with 200 μL of a solution of internal standard propranolol in acetonitrile (50 ng/ml), and vortexed mixed. The mixture was then added with 100 μL of pure water, and vortexed and mixed again. It was centrifuged at 4000 rpm for 5 min, and the supernatant was collected for LC-MS analysis. LC-MS detection conditions were as follows. • Chromatographic column: Thermo Scientific HYPERSIL GOLD C-18 UPLC column, 100*2.1 mm, 1.7 μm. • Mobile phase: water (with 0.1% formic acid)-acetonitrile; gradient elution was performed according to the table below.
After blood drug concentrations was detected by LC-MS, WinNonlin 6.1 software was used to calculate pharmacokinetic parameters based on non-compartmental model.

human GLP-1 R = biological target: T1, human GLP-1 R (Homo sapiens, UniProt P43220); assay: cAMP signal activation in human GLP1R cells (hGLP1R-U2OS, HTRF); assay type: cell-based
T1 construct: expressed in transfected cells
Description: A cell line stably expressing human GLP1 R (hGLP1R-U2OS) was used in this experiment. The cells were cultured in a growth medium (complete medium, DMEM+10% FBS+500 μg/mL G418 (Promega)) in an incubator at 37° C. and has 5% CO2 saturated humidity.
hGLP1R-U2OS was inoculated into 384-well plate with 1.0×10^4 cells/well (5 μL) (cell working solution: DMEM+0.1% BSA+1 mM IBMX (available from Bide Pharmatech Ltd.)), and was placed in an incubator at 37° C. and held for 30 min. The compounds to be tested were diluted stage-by-stage with Stimulation Buffer 1 (1×) in the kit, and the diluted compounds were added to the culture plate with 5 μL/well. They were incubated in an incubator at 37° C. for 30 min. Then, 5 μL/well of cAMP-d2 prepared with Lysis & Detection buffer and 5 μL/well of Anti CAMP-Cryptate working solution were added successively, and they were incubated at room temperature for 60 min before detection.
The ratio of signal emitted by donor to […] in each well was calculated as follows: HTRF rate=signal at 665 nm/signal at 620 nm×104, and then the HTRF rate was converted into a reaction rate (%). The concentration-response curve of each Example compound was created by a 4-parameter equation as Y=Bottom+(Top−Bottom)/(1+10^((Log IC50−X)*HillSlope)), and the half maximal (50%) effective concentration (EC50) was calculated.

[2] = biological target: T2, hERG potassium ion channel (Homo sapiens, UniProt Q12809); assay: Effect on hERG potassium ion channel (CHO-hERG, manual patch clamp); assay type: cell-based
T2 construct: expressed in transfected cells
Description: A cell line CHO-hERG from ovary of Chinese hamster that stably expresses hERG potassium channel was used in this experiment. The cells were cultured in F12 complete medium containing 10% FBS, 1% antibiotics (G418), and 89 μg/mL hygromycin. The recovery medium was a F12 medium containing 10% FBS. Culture was performed at 37° C. and under 5% CO2.
The inhibitory activity of the compounds of the present invention in series gradient concentrations on the potassium channel in CHO-hERG was determined by manual patch clamp system.

T1 sequence (P43220 24-463): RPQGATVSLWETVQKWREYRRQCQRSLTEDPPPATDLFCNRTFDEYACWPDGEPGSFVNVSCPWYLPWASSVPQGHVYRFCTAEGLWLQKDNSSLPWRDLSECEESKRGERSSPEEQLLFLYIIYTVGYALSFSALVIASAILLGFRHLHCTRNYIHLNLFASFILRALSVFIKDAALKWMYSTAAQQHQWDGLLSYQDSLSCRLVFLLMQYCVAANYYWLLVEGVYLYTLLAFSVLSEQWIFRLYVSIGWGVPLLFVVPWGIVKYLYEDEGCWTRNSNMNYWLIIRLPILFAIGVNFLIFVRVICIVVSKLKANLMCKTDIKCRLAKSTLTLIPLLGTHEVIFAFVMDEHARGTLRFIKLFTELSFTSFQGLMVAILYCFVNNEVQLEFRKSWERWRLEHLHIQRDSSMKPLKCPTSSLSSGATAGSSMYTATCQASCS
T2 sequence (Q12809 whole entry): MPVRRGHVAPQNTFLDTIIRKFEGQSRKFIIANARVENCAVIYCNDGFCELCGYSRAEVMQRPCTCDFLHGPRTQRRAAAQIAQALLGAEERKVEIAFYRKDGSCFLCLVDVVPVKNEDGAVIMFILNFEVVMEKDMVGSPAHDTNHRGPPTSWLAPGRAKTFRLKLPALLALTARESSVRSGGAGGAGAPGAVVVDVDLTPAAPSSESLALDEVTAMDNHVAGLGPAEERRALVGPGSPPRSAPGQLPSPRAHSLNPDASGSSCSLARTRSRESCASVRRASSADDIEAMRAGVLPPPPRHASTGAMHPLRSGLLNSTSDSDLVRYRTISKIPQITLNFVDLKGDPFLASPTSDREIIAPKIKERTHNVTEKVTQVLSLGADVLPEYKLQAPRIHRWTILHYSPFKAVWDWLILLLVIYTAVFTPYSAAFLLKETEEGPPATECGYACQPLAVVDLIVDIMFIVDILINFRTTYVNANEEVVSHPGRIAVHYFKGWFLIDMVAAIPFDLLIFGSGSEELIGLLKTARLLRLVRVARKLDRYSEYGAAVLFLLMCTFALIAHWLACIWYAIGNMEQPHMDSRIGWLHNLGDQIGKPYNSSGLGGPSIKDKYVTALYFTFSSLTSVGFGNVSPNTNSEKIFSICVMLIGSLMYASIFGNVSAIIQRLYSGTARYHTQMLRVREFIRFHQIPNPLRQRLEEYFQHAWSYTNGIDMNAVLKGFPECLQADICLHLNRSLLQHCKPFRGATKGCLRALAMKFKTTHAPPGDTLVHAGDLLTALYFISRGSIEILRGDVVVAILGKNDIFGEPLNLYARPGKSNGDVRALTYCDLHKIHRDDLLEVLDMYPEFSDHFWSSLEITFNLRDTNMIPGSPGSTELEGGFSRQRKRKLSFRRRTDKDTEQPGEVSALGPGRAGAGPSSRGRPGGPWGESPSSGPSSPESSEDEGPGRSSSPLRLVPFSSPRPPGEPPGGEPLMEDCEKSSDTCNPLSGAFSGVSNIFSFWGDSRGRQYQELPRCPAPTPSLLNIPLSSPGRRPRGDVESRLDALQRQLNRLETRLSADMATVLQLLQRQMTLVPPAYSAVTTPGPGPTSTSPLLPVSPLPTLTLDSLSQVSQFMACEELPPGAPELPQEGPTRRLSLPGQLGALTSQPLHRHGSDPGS

| F [1] | AUC(0-t) ([1]; iv, 1 mg/kg, i.v) | Cmax ([1]; iv, 1 mg/kg, i.v) | clearance ([1]; iv, 1 mg/kg, i.v) | half-life ([1]; iv, 1 mg/kg, i.v) | AUC(0-t) ([1]; po, 5 mg/kg, p.o) | Cmax ([1]; po, 5 mg/kg, p.o) | half-life ([1]; po, 5 mg/kg, p.o) | EC50 (human GLP-1 R) | Compound | IC50 [2] |
| --- | --- | --- | --- | --- | --- | --- | --- | --- | --- | --- |
| 168.2% | 1700 ng·h/mL | 2250 ng/mL | 9.79 mL/min/kg | 0.87 h | 14300 ng·h/mL | 3780 ng/mL | 2.69 h | 3.89 nM | C[C@@H](c1nc2ccc(C(=O)O)nc2n1C[C@@H]1CCO1)N1CCC(c2cccc(OCc3ccc(Cl)cc3F)n2)CC1 [Example 12, 2-((S)-1-(4-(6-((4-chloro-2-fluorobenzyl)oxy)pyridin-2-yl)piperidin-1-yl)ethyl)-3-(((S)-oxetan-2-yl)methyl)-3H-imidazolo[4,5-b]pyridin-5-carboxylic acid] | – |
| 46.4% | 539 ng·h/mL | 1290 ng/mL | 30.7 mL/min/kg | 0.31 h | 1250 ng·h/mL | 348 ng/mL | 1.17 h | 4.66 nM | C[C@@H](c1nc2ccc(C(=O)O)cc2n1C[C@@H]1CCO1)N1CCN(c2cccc(OCc3ccc(C#N)cc3F)n2)CC1 [Example 20A, 2-((S)-1-(4-(6-((4-cyano-2-fluorobenzyl)oxy)pyridin-2-yl)piperazin-1-yl)ethyl)-1-(((S)-oxetan-2-yl)methyl)-1H-benzo[d]imidazol-6-carboxylic acid] | > 30000 nM |
| 34.3% | 613 ng·h/mL | 1990 ng/mL | 27.2 mL/min/kg | 0.71 h | 1050 ng·h/mL | 323 ng/mL | 1.06 h | 2.28 nM | C[C@@H](c1nc2ccc(C(=O)O)nc2n1C[C@@H]1CCO1)N1CCN(c2cccc(OCc3ccc(C#N)cc3F)n2)CC1 [Example 51A, 2-((S)-1-(4-(6-((4-cyano-2-fluorobenzyl)oxy)pyridin-2-yl)piperazin-1-yl)ethyl)-3-(((S)-oxetan-2-yl)methyl)-3H-imidazo[4,5-b]pyridin-5-carboxylic acid] | – |
| 76.6% | 1130 ng·h/mL | 2050 ng/mL | 14.7 mL/min/kg | 0.95 h | 4330 ng·h/mL | 1160 ng/mL | 2.77 h | 2 nM | C[C@@H](c1nc2ccc(C(=O)O)nc2n1C[C@@H]1CCO1)N1CCN(c2cccc(OCc3ccc(Cl)cc3F)n2)CC1 [Example 52A, 2-((S)-1-(4-(6-((4-chloro-2-fluorobenzyl)oxy)pyridin-2-yl)piperazin-1-yl)ethyl)-3-(((S)-oxetan-2-yl)methyl)-3H-imidazo[4,5-b]pyridin-5-carboxylic acid] | – |
